Series [1] can be described thus: Body weight and food intake after icv administration of beta-GPA in rats. It counts as in vivo, rat. The method, then: (§1) All animal handling was approved by and done in accordance with the guidelines and requirements of the University of Vermont Institutional Animal Care Use Committee. Adult male Sprague-Dawley rats (mycoplasma free; 200 g) were purchased from Charles River (Quebec, Canada) and housed in an air-conditioned (23+1 degree C.) room with lights on for 12 hours daily (starting at 6:00 a.m.) in the University of Vermont Animal Facility. Rats were housed singly in regular cages with free access to Purina Rat Chow (RMH 3000) and water for at least five days prior to surgery. Stereotactic surgery was used to implant chronic indwelling stainless steel cannulae into the third ventricle of the brain under fentanyl/droperidol anesthesia. Coordinates for cannula placement were obtained from the Konig Klippel stereotactic surgery atlas; with the nose bar 2.4 mm below the intraaural line and the vertical micrometer gantry tilted 9 degrees towards the animal, the coordinates were 4.9 mm dorsal to the intraaural line, 5 mm anterior to the intraaural line and 1.1 mm lateral to the midline. A minimum of 5 days later, animals were injected icv with beta-GPA (which was dissolved in saline at 50 degrees C. and the pH adjusted to 7.2-7.4 with dilute HCl) or other experimental compounds at the indicated concentrations. Control animals received equal volumes of vehicle. Volumes of icv injections never exceeded 10 ul per animal and were administered over 5-10 seconds. In some experiments, animals received two or more icv injections on the same or different days. Measures of body weight were made daily with a digital balance with a 6 second integration period to minimize the effects of animal movement. For experiments involving measurement of food intake, after stereotactic surgery animals were housed in individual Nalgene metabolic cages and given additional time for acclimation to the cage and feeding system. Food intakes were measured using powdered rat chow with daily weigh-backs as indicated.

Series [2] is classed as physicochemical. The method, then:
as §1, with “Control animals received equal volumes of vehicle. Volumes of icv injections never exceeded 10 ul per animal and were administered over 5-10 seconds. In some experiments, animals received two or more icv injections on the same or different days. Measures of body weight were made daily with a digital balance with a 6 second integration period to minimize the effects of animal movement. For experiments involving measurement of food intake, after stereotactic surgery animals were housed in individual Nalgene metabolic cages and given additional time for acclimation to the cage and feeding system.” left out, “indicated. […]” for “indicated.”

The test system of series [3] is creatine transporter (CrT) mRNA. Nature of the series: Real-Time PCR of creatine transporter mRNA in hypothalami of beta-GPA-treated rats. It is filed as in vivo, rat. To be noted: hypothalamus, normalized to L32 mRNA, not statistically significant, FIG. 4. Here is the method:
RNA was purified with […] (Promega) at 37 degrees C. for 30 min. The first strand of cDNA was synthesized by adding 1 ug of purified RNA from each sample to 20 ul containing MMLV reverse transcriptase (Invitrogen Life Tech). Creatine transporter (CrT) gene expression was further quantatified by Real-Time PCR using sense primer: 5′GGTAAGGGTGCAA GCCTTTG′ (SEQ ID NO: 1); antisense primer: 5′[…]-3′ (SEQ ID NO:2) and TaqMan probe: 5′[…]-3′ (SEQ ID NO: 3) (MMG-Biotech). The rat ribosomal protein L32 gene was used as a loading control. 1 ul of each cDNA sample derived from the 20 ul reverse transcription reaction and 1 ug RNA template was mixed with 24 ul master mixture (Perkin Elmer) in a 96-well TaqMan plate. The PCR was run in an ABI prism 7700 thermocycler (Applied Biosystems) at 50 degrees C. for 2 min and 95 degrees C. for 10 min, followed by 95 degrees C. for 15 sec and 60 degrees C. for 1 min for 40 cycles. The data were analyzed using software supplied with the ABI prism 7700.
On the technique in general: Quantitative PCR measures a nucleic acid by following its amplification.

Another series relates to Fos (c-fos protein). Nature of the series: Fos immunohistochemistry of hypothalamic sections 4 hours after icv injection. It counts as in vivo, rat. To be noted: 4 hours after icv 2 mg per rat, especially around the III ventricles. The method, then:
In experiments involving immunohistochemistry, animals were injected icv with beta-GPA or with vehicle. Four hours after injection, animals were anesthetized with halothane and perfused through the left ventricle of the heart, initially with oxygenated Krebs buffer and then with ˜350 ml of 4% paraformaldehyde in 0.1M NaCl, pH 7.4 phosphate buffered saline (PBS). Brains were extracted from the skull, hypothalamic blocks dissected (by coronal cuts anterior and posterior to hypothalamic landmarks) and post-fixed in 4% paraformaldehyde solution at 4 degrees C. overnight. The following day, the blocks were transferred to 30% sucrose and incubated overnight at 4 degrees C. After freezing in Optimum Cutting Temperature (OCT) compound (Sakura, Japan), blocks were sectioned coronally at 40 um on a cryostat and sections individually floated in multi-well dishes filled with PBS. Sections were treated for 30 minutes with 0.4% Triton detergent in potassium PBS to aid in antibody penetration. Primary antibodies were added, the plates shaken gently for 1 hour at room temperature, then incubated at 4 degrees C. for 72 hours. Sections were then brought to room temperature while shaking and the primary antibody solution was removed by washing 3 times with PBS buffer. After removal of the last wash, the secondary antibody solution was added and the plates incubated for 2 hours at room temperature in the dark. Removal of the second antibody was achieved by washing three times with PBS buffer prior to mounting on subbed slides. They were allowed to dry, rewetted with PBS buffer and cover-slipped with Citifluor (Ted Pella, Reading, Calif.).
Fos studies were performed using indirect fluorescence visualization. The method utilized rabbit c-Fos-AB5 (1:2,000; Oncogene Research Products, Cambridge, Mass.) with goat anti-rabbit Cy3 (1:500; Jackson Immuno Research Laboratories, West Grove, Pa.) as the secondary antibody. […] Staining observed in experimental tissue was compared to that observed from experiment-matched negative controls. […] Immunoreactive Fos (Fos IR) was quantified by capturing images at 10× using MagnaFire 2.0 Software. These images were imported into the Metamorph 6.1 Software package and density of staining measured using Hue Saturation Intensity. Regions outlining nuclei were hand drawn with an electric pen and the total areas and stained areas measured to yield percentages of total areas with specific Fos-IR. The values for left and right dorsomedial nuclei in each rat were averaged, and the averages used to calculate means. In the case of the III ventricle, the entire image was used for quantification prior to calculating the percentage of the area with Fos-IR.

The mark [4] stands for this setting: icv 1 mg, 2 mg or 3 mg per animal, FIG. 2.
Setting [5] is: icv 2 mg/rat, single dose, FIG. 1.

As for `N=C(N)NCCC(=O)O` [beta-GPA, 3-guanidopropionic acid], the body weight result in series [1] (setting [4]) is “decreased in a dose-dependent fashion”; in series [1] (setting [5]), “modest decreases”. Besides, the food intake result in series [1] (setting [4]) is “decreased in a dose-dependent fashion”; in series [1] (setting [5]), “modest decreases”. In series [1] (icv 2 mg/rat, single dose), the “time until body weight and food intake returned to values indistinguishable from vehicle-treated animals” value is listed as “four”. Further, the “effect of icv dose (body weight and food intake)” value in series [1] (icv, 0.04 mg, five-fold lower dose, dose-ranging study) was “without effect”. Moreover, the “magnitude of body weight and food intake effects after a second identical dosage” value in series [1] (second icv dose seven days after the first, FIG. 2) is “enhanced considerably”. Further, in series [2], the “usability of a five-fold greater icv dose (10 mg)” value was “not usable because of solubility dictates”. In series [3], the “relative units of CrT gene expression versus vehicle-treated animals” value is on record as “slight decrease”. In the series with Fos (c-fos protein), the “Fos IR” value is recorded as “increased”.

(Values after US20090305225A1, “Inhibition of Creatine Uptake to Promote Weight Loss” (priority 2005, published 2009).)
